# From ChEMBL document CHEMBL1201862, “PubChem BioAssay data set” (2004)
# Calls of active or inactive are those of the source.
# Legend:
# [1] = microbe, parasite or virus in culture; type: functional; conditions: Mycobacterium tuberculosis
# Genome polyprotein = Genome polyprotein (Hepatitis C virus, UniProt Q2Q167); experiment: disruption of hepatitis C core self-association – biochemical, TR-FRET, dose response (AID 2159); design: species or system Hepacivirus hominis;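 also: blocks dimerization of HCV core protein measured by TR-FRET between tagged core106 pairs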
# Sequence of Genome polyprotein (Q2Q167 whole entry): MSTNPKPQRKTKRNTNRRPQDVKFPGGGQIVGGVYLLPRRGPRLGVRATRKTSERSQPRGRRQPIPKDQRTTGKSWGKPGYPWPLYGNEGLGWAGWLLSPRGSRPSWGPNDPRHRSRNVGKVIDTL
# [2] = biological target: Eukaryotic translation initiation factor 4E (Mus musculus, UniProt P63073); experiment: blockers of eIF4G binding by eIF4E – biochemical, TR-FRET, dose response (AID 855); type: functional;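 also: potency for disrupting eIF4E binding to eIF4GI seen as loss of FRET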
# Sequence of Eukaryotic translation initiation factor 4E (P63073 whole entry): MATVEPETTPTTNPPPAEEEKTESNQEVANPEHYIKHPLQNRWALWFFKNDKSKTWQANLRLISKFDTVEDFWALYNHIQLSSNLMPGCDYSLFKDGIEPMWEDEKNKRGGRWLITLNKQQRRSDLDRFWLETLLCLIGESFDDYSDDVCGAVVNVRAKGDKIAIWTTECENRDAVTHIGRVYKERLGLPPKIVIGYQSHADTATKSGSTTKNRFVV
# Protein Rev = Protein Rev (Human immunodeficiency virus type 1 group M subtype B (isolate HXB2)(HIV-1), UniProt P04618); experiment: blockers of HIV Rev/RRE RNA complex – biochemical, fluorescence polarization, HIV-1, dose response (AID 434976); design: species or system Human immunodeficiency virus 1
# Sequence of Protein Rev (P04618 whole entry): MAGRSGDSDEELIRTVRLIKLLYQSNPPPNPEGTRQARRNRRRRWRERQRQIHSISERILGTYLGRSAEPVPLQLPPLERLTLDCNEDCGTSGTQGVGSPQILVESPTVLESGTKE
# [3] = biological target: Female germline-specific tumor suppressor gld-1 (Caenorhabditis elegans, UniProt Q17339); experiment: blockers of GLD-1/TGE RNA complex formation – biochemical, fluorescence polarization, C. elegans, dose response (AID 2802);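 also: fluorescence polarization of labeled TGE RNA bound by purified gld-1 protein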
# Sequence of Female germline-specific tumor suppressor gld-1 (Q17339 whole entry): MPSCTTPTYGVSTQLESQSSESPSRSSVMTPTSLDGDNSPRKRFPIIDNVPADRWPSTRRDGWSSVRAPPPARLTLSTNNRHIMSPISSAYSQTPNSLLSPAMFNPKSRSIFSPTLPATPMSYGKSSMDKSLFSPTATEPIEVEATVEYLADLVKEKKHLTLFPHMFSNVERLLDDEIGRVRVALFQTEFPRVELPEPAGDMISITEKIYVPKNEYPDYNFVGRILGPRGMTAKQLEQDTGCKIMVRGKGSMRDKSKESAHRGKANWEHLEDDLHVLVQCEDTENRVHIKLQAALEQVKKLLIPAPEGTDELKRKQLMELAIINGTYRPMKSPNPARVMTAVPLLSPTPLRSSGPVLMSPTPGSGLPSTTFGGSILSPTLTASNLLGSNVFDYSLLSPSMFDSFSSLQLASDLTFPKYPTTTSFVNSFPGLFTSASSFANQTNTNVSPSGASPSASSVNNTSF
# [4] = biological target: Polyadenylate-binding protein 1 (Homo sapiens, UniProt P11940); experiment: PABP inhibition in translation initiation, SAR follow-up (AID 435018); type: functional
# [5] = biological target: Eukaryotic translation initiation factor 4H (Homo sapiens, UniProt Q15056); experiment: inhibitors of translation initiation factor eIF4H – SAR follow-up (AID 435011); type: functional
# [6] = reduction of Shn3 3'UTR-driven luciferase in osteoblasts – cell-based, Clone20 osteoblasts, firefly luciferase, cherry-picked, dose response (AID 624132); type: functional;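 also: firefly luciferase luminescence from reporter carrying the Shn3 3'UTR in osteoblasts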
# Beta-galactosidase = Beta-galactosidase (Escherichia coli, UniProt Q8VNN2); experiment: detection-enzyme interference by beta-gal modulators – biochemical, E. coli enzyme, set 3, artefact control for CCR6 antagonist project, dose response (AID 504712); type: functional
# Sequence of Beta-galactosidase (Q8VNN2 whole entry): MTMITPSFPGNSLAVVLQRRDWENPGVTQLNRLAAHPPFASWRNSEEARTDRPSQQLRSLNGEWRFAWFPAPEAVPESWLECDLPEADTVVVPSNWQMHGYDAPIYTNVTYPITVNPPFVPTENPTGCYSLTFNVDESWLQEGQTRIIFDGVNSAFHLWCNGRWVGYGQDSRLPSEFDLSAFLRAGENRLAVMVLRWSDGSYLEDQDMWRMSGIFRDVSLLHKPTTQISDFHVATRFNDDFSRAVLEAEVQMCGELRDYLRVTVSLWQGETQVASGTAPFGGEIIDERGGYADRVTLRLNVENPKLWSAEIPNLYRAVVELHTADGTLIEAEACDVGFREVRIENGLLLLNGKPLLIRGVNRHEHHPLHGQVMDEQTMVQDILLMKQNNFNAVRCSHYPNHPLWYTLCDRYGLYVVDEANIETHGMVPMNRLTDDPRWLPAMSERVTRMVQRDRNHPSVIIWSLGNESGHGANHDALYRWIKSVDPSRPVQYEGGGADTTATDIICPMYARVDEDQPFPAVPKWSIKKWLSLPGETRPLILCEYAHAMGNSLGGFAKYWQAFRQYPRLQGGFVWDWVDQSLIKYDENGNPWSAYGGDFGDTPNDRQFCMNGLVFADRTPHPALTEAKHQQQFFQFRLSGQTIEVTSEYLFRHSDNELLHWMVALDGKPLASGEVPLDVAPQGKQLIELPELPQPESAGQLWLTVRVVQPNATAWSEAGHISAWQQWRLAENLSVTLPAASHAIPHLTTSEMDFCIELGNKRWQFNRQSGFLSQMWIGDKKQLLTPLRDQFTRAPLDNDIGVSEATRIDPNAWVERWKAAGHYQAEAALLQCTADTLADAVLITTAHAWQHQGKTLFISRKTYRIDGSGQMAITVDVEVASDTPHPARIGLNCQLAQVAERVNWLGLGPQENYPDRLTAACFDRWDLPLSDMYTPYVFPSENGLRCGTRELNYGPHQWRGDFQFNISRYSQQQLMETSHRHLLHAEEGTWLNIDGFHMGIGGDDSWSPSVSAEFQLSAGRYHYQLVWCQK
# [7] = non-specific 3'UTR reporter inhibition in Clone20-Shn3RL – cell-based, Renilla luciferase, cherry-picked, counter-screen for Shn3 inhibitor project, dose response (AID 624133); type: functional
# [8] = loss of viability in HepG2 cells – cell-based, CellTiter-Glo, cherry-picked, cytotoxicity control for Shn3 inhibitor project, dose response (AID 624134); type: functional
# [9] = biological target: G-protein coupled receptor 55 (Homo sapiens, UniProt Q9Y2T6); experiment: selective activators of receptor GPR55 – imaging, U2OS cells, beta-arrestin-GFP redistribution, primary screen (AID 1961); type: functional
# Vero [10] = experiment: Vero 76 cell viability after compound exposure – Vero 76 cells, synthesized analogs, cytotoxicity control for West Nile virus antiviral project, SAR follow-up (AID 2414); type: functional; conditions: Chlorocebus sabaeus
# Vero [11] = experiment: Vero cell viability after compound exposure – synthesized analogs, set II, cytotoxicity control for West Nile virus antiviral project, SAR follow-up (AID 2402); type: functional; conditions: Chlorocebus sabaeus
# Vero [12] = experiment: antiviral protection of cells from WNV – synthesized analogs, SAR follow-up (AID 2238); type: functional, cell-based; conditions: Chlorocebus sabaeus
# Vero [13] = experiment: host cell viability loss, Vero E6 – synthesized analogs, cytotoxicity control for West Nile virus antiviral project, SAR follow-up (AID 2244); type: functional; conditions: Chlorocebus sabaeus
# [14] = biological target: Melanin-concentrating hormone receptor 1 (Homo sapiens, UniProt Q99705); experiment: Late-stage fluorescence-based counterscreen for antagonists of the G-protein coupled receptor 7 (GPR7): cell-based dose response assay to identify antagonists of the melanin-concentrating hormone receptor 1 (MCHR1). [Related pubchem assays (depositor defined):AID1861, AID1880, AID1952, AID2148, AID2251, AID2257, AID485339]; type: functional;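 also: stimulated with 30 nM MCH peptide agonist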
# Sequence of Melanin-concentrating hormone receptor 1 (Q99705 whole entry): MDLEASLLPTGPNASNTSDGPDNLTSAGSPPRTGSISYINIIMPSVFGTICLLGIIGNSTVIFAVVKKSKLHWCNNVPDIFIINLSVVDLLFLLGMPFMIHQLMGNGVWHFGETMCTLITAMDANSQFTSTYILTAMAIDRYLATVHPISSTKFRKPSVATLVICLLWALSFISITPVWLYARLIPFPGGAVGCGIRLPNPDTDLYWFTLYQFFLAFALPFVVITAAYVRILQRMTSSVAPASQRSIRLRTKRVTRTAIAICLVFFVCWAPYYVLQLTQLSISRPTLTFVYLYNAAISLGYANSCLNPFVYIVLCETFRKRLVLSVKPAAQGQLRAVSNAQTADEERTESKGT
# [15] = biological target: T1, Neuropeptides B/W receptor type 1 (Homo sapiens, UniProt P48145); experiment: human NPBW1 receptor blockade, IC50 – cell-based, fluorescence, dose response, late-stage follow-up (AID 463251); type: functional
# T1 sequence (P48145 whole entry): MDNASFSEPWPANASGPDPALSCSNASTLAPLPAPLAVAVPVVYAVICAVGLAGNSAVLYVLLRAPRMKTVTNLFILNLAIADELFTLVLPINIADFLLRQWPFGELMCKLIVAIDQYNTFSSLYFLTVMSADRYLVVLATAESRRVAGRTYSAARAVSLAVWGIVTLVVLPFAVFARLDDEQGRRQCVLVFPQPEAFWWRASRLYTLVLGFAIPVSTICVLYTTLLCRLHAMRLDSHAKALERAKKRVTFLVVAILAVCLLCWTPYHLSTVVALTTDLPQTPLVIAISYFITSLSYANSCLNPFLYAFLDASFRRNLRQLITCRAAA
# [16] = biological target: Intestinal-type alkaline phosphatase (Homo sapiens, UniProt P09923); experiment: Dose Response confirmation of uHTS hits from a small molecule inhibitors of human intestinal alkaline phosphatase via a luminescent assay. [Related pubchem assays (depositor defined):AID2544, AID2574]; type: functional
# Sequence of Intestinal-type alkaline phosphatase (P09923 whole entry): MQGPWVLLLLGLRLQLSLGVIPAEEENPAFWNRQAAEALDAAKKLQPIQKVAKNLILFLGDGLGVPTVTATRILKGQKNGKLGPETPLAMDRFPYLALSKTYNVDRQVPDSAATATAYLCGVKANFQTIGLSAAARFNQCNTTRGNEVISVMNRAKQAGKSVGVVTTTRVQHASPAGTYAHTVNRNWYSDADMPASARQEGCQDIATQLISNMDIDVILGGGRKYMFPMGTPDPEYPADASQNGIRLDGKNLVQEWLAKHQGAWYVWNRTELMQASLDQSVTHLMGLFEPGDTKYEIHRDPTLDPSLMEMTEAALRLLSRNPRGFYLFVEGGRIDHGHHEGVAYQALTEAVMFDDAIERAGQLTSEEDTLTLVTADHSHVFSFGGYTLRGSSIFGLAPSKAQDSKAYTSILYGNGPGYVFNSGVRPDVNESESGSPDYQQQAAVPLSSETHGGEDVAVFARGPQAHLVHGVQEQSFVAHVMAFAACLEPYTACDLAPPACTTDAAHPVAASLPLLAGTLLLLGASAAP
# [17] = Late stage results from the probe development effort to identify inhibitors of the protein methylesterase PME-1: Luminescence-based counterscreen assay to identify cytotoxic compounds.; type: functional
# [18] = biological target: Acylamino-acid-releasing enzyme (Homo sapiens, UniProt P13798); experiment: endogenous PME-1 and serine hydrolase inhibition – cell lysate, mouse brain cytosol, FP-rhodamine, gel ABPP, selectivity assay for PME-1 inhibitor project, dose response, panel member APEH Assay Panel member description: Inhibition of N-acylaminoacyl-peptide hydrolase (APEH) (anti-target) (AID 2366)
# Sequence of Acylamino-acid-releasing enzyme (P13798 whole entry): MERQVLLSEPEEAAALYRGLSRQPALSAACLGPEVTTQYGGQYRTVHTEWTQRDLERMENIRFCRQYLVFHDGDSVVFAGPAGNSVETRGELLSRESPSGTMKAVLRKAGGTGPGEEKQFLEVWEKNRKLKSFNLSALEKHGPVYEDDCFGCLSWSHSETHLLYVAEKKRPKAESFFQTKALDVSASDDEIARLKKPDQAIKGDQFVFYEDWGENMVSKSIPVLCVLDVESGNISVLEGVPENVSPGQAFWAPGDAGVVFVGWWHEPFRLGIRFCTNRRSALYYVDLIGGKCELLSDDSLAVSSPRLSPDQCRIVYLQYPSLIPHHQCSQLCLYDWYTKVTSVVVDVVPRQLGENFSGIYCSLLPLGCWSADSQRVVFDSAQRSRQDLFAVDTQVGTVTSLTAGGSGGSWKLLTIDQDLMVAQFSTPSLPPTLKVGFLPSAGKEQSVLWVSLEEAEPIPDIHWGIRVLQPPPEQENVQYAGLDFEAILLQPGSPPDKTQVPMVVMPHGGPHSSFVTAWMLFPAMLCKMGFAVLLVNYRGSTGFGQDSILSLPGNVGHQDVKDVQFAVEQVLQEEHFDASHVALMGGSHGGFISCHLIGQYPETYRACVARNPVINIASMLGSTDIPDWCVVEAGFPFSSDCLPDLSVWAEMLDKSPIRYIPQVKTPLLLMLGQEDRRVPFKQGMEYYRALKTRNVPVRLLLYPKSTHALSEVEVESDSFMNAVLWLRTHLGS
# [19] = biological target: T2, Mannose-6-phosphate isomerase (Homo sapiens, UniProt P34949); experiment: phosphomannose isomerase inhibition – biochemical, fluorescence intensity, confirmation (AID 1535)
# T2 sequence (P34949 whole entry): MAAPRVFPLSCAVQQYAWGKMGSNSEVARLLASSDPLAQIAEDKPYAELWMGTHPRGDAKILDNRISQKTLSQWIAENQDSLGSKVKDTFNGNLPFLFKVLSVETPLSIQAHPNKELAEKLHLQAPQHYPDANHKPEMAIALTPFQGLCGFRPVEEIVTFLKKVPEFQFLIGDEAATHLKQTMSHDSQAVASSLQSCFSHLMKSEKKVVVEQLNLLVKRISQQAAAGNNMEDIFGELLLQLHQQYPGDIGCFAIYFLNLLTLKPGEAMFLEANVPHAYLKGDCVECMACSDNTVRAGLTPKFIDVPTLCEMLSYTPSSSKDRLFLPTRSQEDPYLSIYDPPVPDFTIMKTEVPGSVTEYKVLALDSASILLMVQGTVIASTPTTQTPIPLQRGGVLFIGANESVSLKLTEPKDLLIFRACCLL
# [20] = biological target: Phosphoethanolamine/phosphocholine phosphatase (Homo sapiens, UniProt Q8TCT1); experiment: SAR assay for compounds that inhibit PHOSPHO1. [Related pubchem assays (depositor defined):AID1545, AID1565, AID1574]
# Sequence of Phosphoethanolamine/phosphocholine phosphatase (Q8TCT1 whole entry): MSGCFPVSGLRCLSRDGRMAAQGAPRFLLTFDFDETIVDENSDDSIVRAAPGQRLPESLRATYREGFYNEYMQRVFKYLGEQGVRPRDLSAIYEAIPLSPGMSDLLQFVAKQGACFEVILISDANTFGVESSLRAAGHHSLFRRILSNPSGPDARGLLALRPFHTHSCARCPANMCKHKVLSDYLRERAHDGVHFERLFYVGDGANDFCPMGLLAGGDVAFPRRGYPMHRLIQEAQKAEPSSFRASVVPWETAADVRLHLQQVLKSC
# Phosphomannomutase 2 = Phosphomannomutase 2 (Homo sapiens, UniProt O15305); experiment: Counter screen SAR assay for PMM2 inhibitors via a fluorescence intensity assay. [Related pubchem assays (depositor defined):AID1545, AID1574]
# Sequence of Phosphomannomutase 2 (O15305 whole entry): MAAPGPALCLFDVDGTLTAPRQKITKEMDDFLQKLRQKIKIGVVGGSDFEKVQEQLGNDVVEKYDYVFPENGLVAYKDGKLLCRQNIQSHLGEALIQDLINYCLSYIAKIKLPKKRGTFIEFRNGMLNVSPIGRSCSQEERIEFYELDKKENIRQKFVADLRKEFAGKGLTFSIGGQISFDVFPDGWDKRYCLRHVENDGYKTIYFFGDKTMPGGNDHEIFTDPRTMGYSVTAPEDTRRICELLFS
# Paired box protein Pax-8 = Paired box protein Pax-8 (Homo sapiens, UniProt Q06710); experiment: PAX8 transcriptional activity inhibition in RMG-I – RMG-I cells, luciferase, cherry-pick, dose response (AID 687027); type: functional, cell-based;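 also: luciferase reporter driven by Pax8 target thyroperoxidase promoter measured by SteadyGlo luminescence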
# INS1 = experiment: INS-1E survival protection against cytokine death – cell-based, luminescence, retest, dose response (AID 449756); type: functional; conditions: Rattus norvegicus;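 also: cell death triggered by IL-1 beta plus TNF-alpha plus IFN-gamma mixture; protective hits raise ATP signal compared with cytokine alone wells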
# [21] = biological target: T3, Replicative DNA helicase DnaB (Mycobacterium tuberculosis, UniProt P9WMR3); experiment: DnaB intein splicing inhibitors, dose response, biochemical, cell-free fluorescence (AID 449749); type: functional
# T3 sequence (P9WMR3 whole entry): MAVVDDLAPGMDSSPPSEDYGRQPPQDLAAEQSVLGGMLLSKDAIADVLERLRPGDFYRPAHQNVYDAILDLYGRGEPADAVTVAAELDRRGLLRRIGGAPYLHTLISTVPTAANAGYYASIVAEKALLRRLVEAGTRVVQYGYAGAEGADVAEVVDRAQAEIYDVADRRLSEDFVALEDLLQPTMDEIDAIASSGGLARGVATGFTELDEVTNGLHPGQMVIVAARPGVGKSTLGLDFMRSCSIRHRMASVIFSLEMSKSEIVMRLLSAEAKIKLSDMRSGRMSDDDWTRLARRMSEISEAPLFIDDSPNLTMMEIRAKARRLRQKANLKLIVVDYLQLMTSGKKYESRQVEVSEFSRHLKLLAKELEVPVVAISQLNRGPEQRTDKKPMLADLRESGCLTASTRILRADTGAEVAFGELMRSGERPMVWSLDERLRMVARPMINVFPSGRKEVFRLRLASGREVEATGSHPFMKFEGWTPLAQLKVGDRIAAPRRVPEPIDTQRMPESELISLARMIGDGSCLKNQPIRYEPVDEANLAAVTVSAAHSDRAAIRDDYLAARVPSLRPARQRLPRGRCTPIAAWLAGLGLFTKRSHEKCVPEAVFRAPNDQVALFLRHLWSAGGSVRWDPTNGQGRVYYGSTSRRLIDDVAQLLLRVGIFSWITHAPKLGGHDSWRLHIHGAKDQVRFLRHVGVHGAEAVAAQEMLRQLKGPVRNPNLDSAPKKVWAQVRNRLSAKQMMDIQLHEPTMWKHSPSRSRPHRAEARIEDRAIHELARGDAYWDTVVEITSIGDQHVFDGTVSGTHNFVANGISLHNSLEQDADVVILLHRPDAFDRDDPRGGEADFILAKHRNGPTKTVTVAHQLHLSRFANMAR
# BJ = experiment: growth inhibition of engineered Ras-driven BJ cells – cell-based, alamar blue fluorescence, cherrypicked samples, dose response (AID 2631); type: functional; conditions: Homo sapiens;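 also: confirmatory dose-response assay in RAS-dependent BJ fibroblasts engineered with TERT, LT and ST, with cytotoxicity read by fluorescence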
# [22] = biological target: G-protein coupled receptor 35 (Homo sapiens, UniProt Q9HC97); experiment: inhibition of zaprinast-stimulated GPR35 beta-arrestin translocation – imaging, U2OS, beta-arrestin-GFP, zaprinast agonist, primary screen (AID 2058); type: functional;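 also: antagonist potency meaning inhibition of agonist-induced arrestin redistribution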
# Sequence of G-protein coupled receptor 35 (Q9HC97 whole entry): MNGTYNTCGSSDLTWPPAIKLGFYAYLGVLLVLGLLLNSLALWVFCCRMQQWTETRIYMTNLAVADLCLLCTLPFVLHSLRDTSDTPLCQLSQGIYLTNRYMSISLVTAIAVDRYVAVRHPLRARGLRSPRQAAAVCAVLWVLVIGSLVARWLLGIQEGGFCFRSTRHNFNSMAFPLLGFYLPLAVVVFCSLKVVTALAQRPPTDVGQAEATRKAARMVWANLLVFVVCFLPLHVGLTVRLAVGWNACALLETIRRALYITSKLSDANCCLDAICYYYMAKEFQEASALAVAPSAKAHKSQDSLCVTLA
# [23] = viability of PTEN-deleted HCT116 cells – cell-based, HCT116 PTEN knockout, dose response (AID 1047); type: functional;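 also: HCT116 colon tumor cells with PTEN knocked out; cells exposed to compound for 60 hours before readout; potency for loss of cell viability measured by luminescence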
# [24] = viability of HCT116 lacking mutant beta-catenin – cell-based, human colon tumor, dose response (AID 1045); type: functional;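 also: HCT116 colon tumor cells with beta catenin knocked out; cells exposed to compound for 60 hours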
# Protein RecA = biological target: T4, Protein RecA (Mycobacterium tuberculosis, UniProt P9WHJ3); experiment: Fluorescence Cell-Free Homogeneous Dose Retest to Identify Inhibitors of RecA-Intein Splicing Activity. [Related pubchem assays (depositor defined):AID2097, AID2223, AID489010, AID492950]; type: functional
# T4 sequence (P9WHJ3 whole entry): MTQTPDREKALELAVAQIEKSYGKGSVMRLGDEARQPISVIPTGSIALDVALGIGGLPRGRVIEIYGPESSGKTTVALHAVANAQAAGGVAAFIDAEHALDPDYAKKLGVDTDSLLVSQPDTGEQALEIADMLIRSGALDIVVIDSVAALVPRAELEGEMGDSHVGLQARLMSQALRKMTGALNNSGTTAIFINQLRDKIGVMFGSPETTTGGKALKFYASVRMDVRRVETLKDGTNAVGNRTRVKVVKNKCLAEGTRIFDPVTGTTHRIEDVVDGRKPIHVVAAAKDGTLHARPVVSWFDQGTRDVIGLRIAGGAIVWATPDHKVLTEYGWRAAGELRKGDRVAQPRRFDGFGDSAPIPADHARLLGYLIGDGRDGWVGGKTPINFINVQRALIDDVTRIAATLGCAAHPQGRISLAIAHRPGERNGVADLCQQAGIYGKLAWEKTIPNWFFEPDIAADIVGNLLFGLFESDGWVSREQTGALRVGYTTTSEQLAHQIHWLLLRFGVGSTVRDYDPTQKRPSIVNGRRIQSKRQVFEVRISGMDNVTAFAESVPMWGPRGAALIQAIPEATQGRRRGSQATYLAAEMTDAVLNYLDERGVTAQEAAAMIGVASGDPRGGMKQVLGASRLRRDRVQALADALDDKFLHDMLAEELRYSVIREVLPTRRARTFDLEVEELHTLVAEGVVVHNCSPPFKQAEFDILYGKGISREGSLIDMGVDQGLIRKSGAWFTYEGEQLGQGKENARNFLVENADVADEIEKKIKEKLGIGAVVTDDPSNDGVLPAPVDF
structure (smiles),measurement,setting,value
CC1=CC(=O)c2c(O)ccc(O)c2C1=O,CC50,[1],12.9 µM (active)
same,IC50,Genome polyprotein,> 49.8 µM (not active)
same,IC50,[2],10.3 µM (active)
same,IC50,Protein Rev,> 75.4 µM (not active)
same,IC50,[3],5.58 µM (active)
Cc1cc(Cl)ccc1NC(=O)C1CCN(C(=O)c2cccs2)CC1,IC50,[4],> 100 µM (inactive)
same,IC50,[5],> 100 µM (inactive)
O=C1CC(Sc2nnc(-c3ccccc3O)o2)C(=O)N1c1ccccc1 (configuration not stated),AC50,[6],12.9 µM (active)
same,IC50,Beta-galactosidase,> 66.6 µM (inactive)
same,AC50,[7],17.8 µM (active)
same,AC50,[8],45.2 µM (active)
COC(=O)c1c(NC(=O)CN(c2ccccc2)S(C)(=O)=O)sc2c1CCCC2,EC50,[9],0.577 µM (active)
O=C(CSc1nc2ccccc2c(=O)n1-c1ccc(Cl)c(Cl)c1)Nc1ccc2c(c1)CCC2,CC50,Vero [10],> 66.6 µM (active)
same,CC50,Vero [11],> 100 µM (active)
same,IC50,Vero [12],17.3 µM (active)
same,CC50,Vero [13],> 40 µM (active)
COc1ccc(Oc2c(Cl)cnn(-c3cccc(C#N)c3)c2=O)cc1,IC50,[14],14.2 µM (inactive)
same,IC50,[15],2.8 µM (active)
O=C(NCCCN1CCOCC1)c1ccc2c(c1)N(Cc1ccc(Cl)cc1)C(=O)c1ccccc1[S+]2[O-] (configuration not stated),IC50,[16],> 100 µM (inactive)
N#C/C(=C\c1cccn1S(=O)(=O)c1cccc([N+](=O)[O-])c1)S(=O)(=O)c1ccc(F)cc1,CC50,[17],100 µM (active)
same,IC50,[18],> 50 µM (inactive)
O=c1c2ccccc2sn1-c1cc(S(=O)(=O)N2CCOCC2)ccc1N1CCCCC1,IC50,[19],39.2 µM (active)
same,IC50,[20],39.4 µM (inactive)
same,IC50,Phosphomannomutase 2,> 100 µM (inactive)
O=S(=O)(/C(=C/c1ccc(C(F)(F)F)cc1)c1nc2ccccc2[nH]1)c1ccccc1,AC50,Paired box protein Pax-8,2.82 µM (active)
same,AC50,INS1,4.43 µM (active)
same,AC50,[21],3.54 µM (active)
same,EC50,BJ,0.601 µM (active)
same,IC50,[22],> 32 µM (inactive)
same,EC50,[23],1.89 µM (active)
same,EC50,[24],1.68 µM (active)
same,EC50,Protein RecA,5.85 µM (active)
